Laboratory results taken from ChEMBL document CHEMBL1132010, “In vivo anti-HIV activity of (+)-calanolide A in the hollow fiber mouse model” (Bioorg Med Chem Lett, 1999).

Experiments:
Mus musculus [1] = assay: Compound dose (dosing schedule - q8h) that prevented a decrease in RT activity and p24 antigen production without increase in cell viability in mice.* dose was found to be toxic; type: functional
Mus musculus [2] = assay: Compound dose required to produce significant anti-HIV activity in mice after i.p. administration, given twice daily (q12h); type: functional
Mus musculus [3] = assay: Compound dose required to produce significant anti-HIV activity in mice after oral administration, given twice daily (q12h); type: functional
[4] = Compound dose that was proved to be lethally toxic to mice (q12h); type: ADME; settings: mouse, in vivo
[5] = Compound dose that was proved to be lethally toxic to mice (q24h); type: ADME; settings: mouse, in vivo
Mus musculus [6] = assay: Compound dose (dosing schedule - q8h) that produced a decrease in RT activity without protection against decreased cell viability in mice; type: functional

Compound `CCCc1cc(=O)oc2c3c(c4c(c12)OC(C)(C)C=C4)O[C@H](C)[C@@H](C)[C@@H]3O` [CALANOLIDE A] has a Dose (Mus musculus [1]) of 150 mg/kg, a Dose (Mus musculus [2]) of 200 mg/kg and a Dose (Mus musculus [3]) of 150 mg/kg. The Toxic [4] was 200 mg/kg, the Toxic [5] was 300 mg/kg and the Dose (Mus musculus [6]) was 100 mg/kg.
